According to US20260026505A1, “HERBICIDAL COMPOSITIONS” (SYNGENTA CROP PROTECTION AG, priority 2022, published 2026):
Several values for one entry are separate records, joined by “and”; a condition that tells them apart may be missing. Equal entries are not always repeated.

Experiments:
Assay type in all cases: in vivo
Conditions in all cases: after 13 days
[1] = test system: Lolium perenne (LOLPE); assay: Glasshouse herbicide test, sprayed 1 day after sowing, visual percentage phytotoxicity, Colby synergy
Method: (§1) Seeds of Amaranthus retroflexus (AMARE), Echinochloa crus-galli (ECHCG), Digitaria sanguinalis (DIGSA), Lolium perenne (LOLPE), Alopecurus myosuroides (ALOMY), Chenopodium album (CHEAL), Setaria faberi(SETFA), Abutilon theophrasti(ABUTH), Setaria viridis (SETVI) and Ipomoea hederacea (IPOHE) were sown in standard sterilised soil in pots. After cultivation for 1 day under controlled conditions in a glasshouse (at 24/16° C., day/night; 14 hours light; 65% humidity), the plants were sprayed at 500 l/Ha with an aqueous spray solution derived from the formulation of the technical active ingredients in a small amount of acetone and a solvent and emulsifier mixture referred to as IF50 (11.12% Emulsogen EL360 TM+44.44% N-methylpyrrolidone+44.44% Dowanol DPM glycol ether), to create a 50 g/l solution which was then diluted using 0.2% Genapol X080 (CAS Number: 9043-30-5) as diluent to give the desired final dose of test compound. Where active ingredients were applied as mixtures, aqueous spray solutions were prepared as above, containing both active ingredients. The test plants were then grown under controlled conditions in a glasshouse (at 24/16° C., day/night; 14 hours light; 65% humidity) and watered twice daily. After 13 days, the test was evaluated visually for percentage phytotoxicity to the plants (where 100=total damage to plant; 0=no damage to plant) when compared to control untreated plants. Two to four replicates were applied for each treatment in a randomised block test design.
(§2) 22., E=X+Y−(X*Y/100), where • X=average percent phytotoxicity of herbicide A when applied at a certain rate • Y=average percent phytotoxicity using herbicide B when applied at a certain rate • E=the expected effect of the mixture of herbicides A and B as calculated from the Colby formula.

[2] = test system: Abutilon theophrasti (ABUTH); assay: as above
Method: as §1, §2

[3] = test system: Chenopodium album (CHEAL); assay: as above
Method: as §1, §2

[4] = test system: Amaranthus retroflexus (AMARE); assay: as above
Method: as §1, §2

[5] = test system: Digitaria sanguinalis (DIGSA); assay: as above
Method: as §1, §2

[6] = test system: Setaria viridis (SETVI); assay: as above
Method: as §1, §2

[7] = test system: Alopecurus myosuroides (ALOMY); assay: as above
Method: as §1, §2

[8] = test system: Ipomoea hederacea (IPOHE); assay: as above
Method: as §1, §2

[9] = test system: Echinochloa crus-galli (ECHCG); assay: as above
Method: as §1, §2

[10] = test system: Setaria faberi (SETFA); assay: as above
Method: as §1, §2

[11] = Glasshouse herbicide test, first A + B-20 table, weed species not given
Method: as §1, §2

Compound: CCCN(CCC)C(=O)SCc1ccccc1 [Compound B-7]
- Observed (percentage phytotoxicity) ([1]; 62.5 g/ha): 10%
- Observed (percentage phytotoxicity) ([1]; 125 g/ha): 8%
- Observed (percentage phytotoxicity) ([1]; 250 g/ha): 10%
- Observed (percentage phytotoxicity) ([2]; 62.5 g/ha): 8%
- Observed (percentage phytotoxicity) ([2]; 125 g/ha): 15%
- Observed (percentage phytotoxicity) ([3]; 62.5 g/ha): 9%
- Observed (percentage phytotoxicity) ([3]; 125 g/ha): 15%
- Observed (percentage phytotoxicity) ([3]; 250 g/ha): 15%
- Observed (percentage phytotoxicity) ([4]; 62.5 g/ha): 48%
- Observed (percentage phytotoxicity) ([4]; 250 g/ha): 45%
- Observed (percentage phytotoxicity) ([5]; 62.5 g/ha): 13%
- Observed (percentage phytotoxicity) ([5]; 125 g/ha): 3%
- Observed (percentage phytotoxicity) ([6]; 31.25 g/ha): 5%
- Observed (percentage phytotoxicity) ([6]; 125 g/ha): 8%
- Observed (percentage phytotoxicity) ([7]; 125 g/ha): 15%
- Observed (percentage phytotoxicity) ([7]; 250 g/ha): 10%
- Observed (percentage phytotoxicity) ([8]; 31.25 g/ha): 10%
- Observed (percentage phytotoxicity) ([8]; 62.5 g/ha): 5%
- Observed (percentage phytotoxicity) ([8]; 125 g/ha): 8%
- Observed (percentage phytotoxicity) ([8]; 250 g/ha): 20%

Compound: CS(=O)(=O)c1ccc(C(=O)C2C(=O)CCCC2=O)c([N+](=O)[O-])c1 [Compound B-4]
- Observed (percentage phytotoxicity) ([2]; 3.91 g/ha): 78%
- Observed (percentage phytotoxicity) ([4]; 3.91 g/ha): 53%
- Observed (percentage phytotoxicity) ([4]; 7.81 g/ha): 85%
- Observed (percentage phytotoxicity) ([4]; 15.63 g/ha): 85%
- Observed (percentage phytotoxicity) ([4]; 31.25 g/ha): 85%
- Observed (percentage phytotoxicity) ([5]; 3.91 g/ha): 70%
- Observed (percentage phytotoxicity) ([9]; 3.91 g/ha): 5%
- Observed (percentage phytotoxicity) ([10]; 3.91 g/ha): 5%
- Observed (percentage phytotoxicity) ([10]; 7.81 g/ha): 3%
- Observed (percentage phytotoxicity) ([10]; 15.63 g/ha): 8%
- Observed (percentage phytotoxicity) ([7]; 3.91 g/ha): 0%
- Observed (percentage phytotoxicity) ([7]; 7.81 g/ha): 3%
- Observed (percentage phytotoxicity) ([8]; 3.91 g/ha): 10%

Compound: Cn1nc(C(F)(F)F)c(CS(=O)(=O)C2=NOC(C)(C)C2)c1OC(F)F [Compound B-9]
- Observed (percentage phytotoxicity) ([1]; 1.95 g/ha): 14%
- Observed (percentage phytotoxicity) ([1]; 3.91 g/ha): 40%
- Observed (percentage phytotoxicity) ([1]; 7.81 g/ha): 44%
- Observed (percentage phytotoxicity) ([1]; 15.63 g/ha): 48%
- Observed (percentage phytotoxicity) ([1]; 31.25 g/ha): 66%
- Observed (percentage phytotoxicity) ([2]; 3.91 g/ha): 40%
- Observed (percentage phytotoxicity) ([2]; 7.81 g/ha): 55%
- Observed (percentage phytotoxicity) ([4]; 1.95 g/ha): 40%
- Observed (percentage phytotoxicity) ([5]; 1.95 g/ha): 13%
- Observed (percentage phytotoxicity) ([5]; 3.91 g/ha): 43%
- Observed (percentage phytotoxicity) ([5]; 7.81 g/ha): 65%
- Observed (percentage phytotoxicity) ([8]; 7.81 g/ha): 53%
- Observed (percentage phytotoxicity) ([8]; 15.63 g/ha): 73%

Compound: CC(C)N(C(=O)COc1nnc(C(F)(F)F)s1)c1ccc(F)cc1 [Compound B-16]
- Observed (percentage phytotoxicity) ([1]; 3.91 g/ha): 45%
- Observed (percentage phytotoxicity) ([2]; 15.63 g/ha): 23%
- Observed (percentage phytotoxicity) ([3]; 15.63 g/ha): 48%
- Observed (percentage phytotoxicity) ([4]; 31.25 g/ha): 70%
- Observed (percentage phytotoxicity) ([8]; 3.91 g/ha): 5%
- Observed (percentage phytotoxicity) ([8]; 7.81 g/ha): 8%

Compound: O=C(Nc1ccc(F)cc1F)c1cccnc1Oc1cccc(C(F)(F)F)c1 [Compound B-20]
- Observed (percentage phytotoxicity) ([2]; 3.91 g/ha): 8%
- Observed (percentage phytotoxicity) ([2]; 15.63 g/ha): 20%
- Observed (percentage phytotoxicity) ([2]; 31.25 g/ha): 18%
- Observed (percentage phytotoxicity) ([3]; 15.63 g/ha): 8%
- Observed (percentage phytotoxicity) ([5]; 31.25 g/ha): 68%
- Observed (percentage phytotoxicity) ([9]; 15.63 g/ha): 10%
- Observed (percentage phytotoxicity) ([8]; 31.25 g/ha): 5%
- Observed (percentage phytotoxicity) ([11]; 15.63 g/ha): 23%
- Observed (percentage phytotoxicity) ([11]; 31.25 g/ha): 23%

Compound: CC1(C)CON(Cc2ccc(Cl)cc2Br)C1=O [A]
- Observed (percentage phytotoxicity) ([1]; 3.91 g/ha): 8%
- Observed (percentage phytotoxicity) ([1]; 7.81 g/ha): 13%
- Observed (percentage phytotoxicity) ([1]; 15.63 g/ha): 13%
- Observed (percentage phytotoxicity) ([1]; 31.25 g/ha): 35% and 18%
- Observed (percentage phytotoxicity) ([1]; 62.5 g/ha): 43% and 30%
- Observed (percentage phytotoxicity) ([2]; 7.81 g/ha): 6%
- Observed (percentage phytotoxicity) ([2]; 31.25 g/ha): 5% and 11%
- Observed (percentage phytotoxicity) ([2]; 125 g/ha): 31%
- Observed (percentage phytotoxicity) ([3]; 15.63 g/ha): 21%
- Observed (percentage phytotoxicity) ([4]; 3.91 g/ha): 11%
- Observed (percentage phytotoxicity) ([4]; 31.25 g/ha): 21%
- Observed (percentage phytotoxicity) ([4]; 62.5 g/ha): 31% and 50%
- Observed (percentage phytotoxicity) ([4]; 125 g/ha): 74%
- Observed (percentage phytotoxicity) ([5]; 3.91 g/ha): 4%
- Observed (percentage phytotoxicity) ([5]; 7.81 g/ha): 3%
- Observed (percentage phytotoxicity) ([5]; 15.63 g/ha): 5%
- Observed (percentage phytotoxicity) ([5]; 31.25 g/ha): 11%
- Observed (percentage phytotoxicity) ([5]; 62.5 g/ha): 68%
- Observed (percentage phytotoxicity) ([9]; 7.81 g/ha): 25% and 34%
- Observed (percentage phytotoxicity) ([9]; 15.63 g/ha): 48%
- Observed (percentage phytotoxicity) ([10]; 7.81 g/ha): 13%
- Observed (percentage phytotoxicity) ([10]; 15.63 g/ha): 11%
- Observed (percentage phytotoxicity) ([10]; 31.25 g/ha): 41%
- Observed (percentage phytotoxicity) ([6]; 7.81 g/ha): 10%
- Observed (percentage phytotoxicity) ([6]; 15.63 g/ha): 26%
- Observed (percentage phytotoxicity) ([7]; 7.81 g/ha): 5%
- Observed (percentage phytotoxicity) ([7]; 15.63 g/ha): 10%
- Observed (percentage phytotoxicity) ([7]; 31.25 g/ha): 21% and 16%
- Observed (percentage phytotoxicity) ([7]; 62.5 g/ha): 40%
- Observed (percentage phytotoxicity) ([7]; 125 g/ha): 68%
- Observed (percentage phytotoxicity) ([8]; 7.81 g/ha): 1% and 0%
- Observed (percentage phytotoxicity) ([8]; 15.63 g/ha): 0% and 5%
- Observed (percentage phytotoxicity) ([8]; 31.25 g/ha): 1%
- Observed (percentage phytotoxicity) ([8]; 62.5 g/ha): 1%
- Observed (percentage phytotoxicity) ([11]; 15.63 g/ha): 10%
- Observed (percentage phytotoxicity) ([11]; 31.25 g/ha): 21%
